# Data as given in PMC5732813, “Novel piplartine-containing ruthenium complexes: synthesis, cell growth inhibition, apoptosis induction and ROS production on HCT116 cells” (Oncotarget, 2017).
# What was measured:
# [1] = tested on: BAD KO SV40 MEF (BAD gene knockout immortalized mouse embryonic fibroblast); assay: Cytotoxic activity, alamar blue assay, BAD KO SV40 MEF; type: cell-based; details: Mus musculus, Fibroblast; BAD KO SV40 MEF, 72 h incubation, alamar blue; read-out: IC50
# Excerpt: (§1) HCT116 (human colon carcinoma), HepG2 (human hepatocellular carcinoma), HSC-3 (human oral squamous cell carcinoma), SCC-4 (human oral squamous cell carcinoma), SCC-9 (human oral squamous cell carcinoma), HL-60 (human promyelocytic leukemia), K-562 (human chronic myelogenous leukemia), B16-F10 (murine melanoma), MRC-5 (human lung fibroblast), WT SV40 MEF (wild-type immortalized mouse embryonic fibroblast) and BAD KO SV40 MEF (BAD gene knockout immortalized mouse embryonic fibroblast) cell lines were obtained from the American Type Culture Collection (ATCC, Manassas, VA, USA) and cultured in RPMI-1640 medium (Gibco-BRL, Gaithersburg, MD, USA) with 10% fetal bovine serum (Life, Carlsbad, CA, USA), 2 mM L-glutamine (Vetec Química Fina, Duque de Caxias, RJ, Brazil) and 50 μg/mL gentamycin (Life, Carlsbad, CA, USA). Adherent cells were collected by treatment with 0.25% trypsin EDTA solution (Gibco-BRL, Gaithersburg, MD, USA). All cell lines were cultured in flasks at 37°C in 5% CO2 and sub-cultured every 3-4 days to maintain exponential growth.
# (§2) Cell viability was quantified using the alamar blue assay, according to Ahmed et al.. Cells were inserted in 96-well plates for all experiments (7 x 10^4 cells/mL for adherent cells or 3 x 10^5 cells/mL for suspended cells in 100 μL of medium). […] Negative controls received the vehicle that was used for diluting the compounds tested.
# [2] = tested on: WT SV40 MEF (wild-type immortalized mouse embryonic fibroblast); assay: Cytotoxic activity, alamar blue assay, WT SV40 MEF; type: cell-based; details: Mus musculus, Fibroblast; WT SV40 MEF, 72 h incubation, alamar blue; read-out: IC50
# Excerpt: as §1, §2
# [3] = tested on: SCC-4 (human oral squamous cell carcinoma); assay: Cytotoxic activity, alamar blue assay, SCC-4; type: cell-based; details: SCC-4, 72h of incubation, alamar blue; with 95% confidence interval
# Excerpt: as §1, §2
# [4] = tested on: HL-60 (human promyelocytic leukemia); assay: Cytotoxic activity, alamar blue assay, HL-60; type: cell-based; details: HL-60, 72h of incubation, alamar blue; with 95% confidence interval
# Excerpt: as §1, §2
# [5] = tested on: MRC-5 (human lung fibroblast); assay: Cytotoxic activity, alamar blue assay, MRC-5 non-cancer cells; type: cell-based; details: MRC-5 non-cancer cells, 72h of incubation, alamar blue; with 95% confidence interval; read-out: IC50
# Excerpt: as §1, §2
# HCT116 cells = assay: Internucleosomal DNA fragmentation and cell cycle distribution (DNA content, flow cytometry); type: cell-based, human; details: HCT116, 3 μM, mean ± S.E.M.
# Procedure: Cells were harvested in a permeabilization solution containing 0.1% triton X-100 (Sigma Chemical Co. St Louis, MO, USA), 2 μg/mL propidium iodide (Sigma Chemical Co. St Louis, MO, USA), 0.1% sodium citrate and 100 μg/mL RNAse (Sigma Chemical Co. St Louis, MO, USA) and incubated in the dark for 15 min at room temperature.
# [6] = tested on: PBMC (human peripheral blood mononuclear cells); assay: Cytotoxic activity, alamar blue assay, PBMC non-cancer cells; type: cell-based; details: PBMC non-cancer cells, 72h of incubation, alamar blue; with 95% confidence interval; read-out: IC50
# Procedure: PBMCs were washed and resuspended at a concentration of 3 x 10^5 cells/mL in RPMI 1640 medium with 20% fetal bovine serum, 2 mM glutamine and 50 μg/mL gentamycin at 37°C with 5% CO2. […] The Research Ethics Committee of the Oswaldo Cruz Foundation (Salvador, Bahia, Brazil) approved the experimental protocol (# 031019/2013). All participants signed a written informed consent to participate in the study.
# as §2
# [7] = tested on: cancer multicellular spheroids formed from HCT116 cells; assay: 3D multicellular spheroids culture, alamar blue assay; type: cell-based, human; details: 3D spheroids of HCT116, 72 h treatment, alamar blue; read-out: IC50
# Procedure: as §2
# HCT116 cells were cultivated in 3D multicellular spheroids. Briefly, 100 μL of a solution of cells (0.5 x 10^6 cells/mL) were inserted in 96-well plate with a cell-repellent surface (Greiner Bio-One, Kremsmünster, Austria) and cultured in RPMI 1640 medium with 10% fetal bovine serum, 2 mM glutamine, 3% matrigel (BD Biosciences, San Jose, CA, EUA) and 50 μg/mL gentamycin at 37°C with 5% CO2. […] Negative control received the vehicle that was used for diluting the compounds tested. In the end of the experiment, morphological changes were examined by light microscopy (Olympus BX41, Tokyo, Japan) using Image-Pro software (Media Cybernetics, Inc. Silver Spring, USA) and the cell viability was determined by alamar blue assay as described above.
Structure (SMILES),IC50 [1],IC50 [2],IC50 [3],IC50 [4],IC50 [5],DNA content (%) S (HCT116 cells; 24h),DNA content (%) S (HCT116 cells; 48h),IC50 [6],IC50 [7]
O=c1[nH]cc(F)c(=O)[nH]1 [5-fluorouracil],7.3 µM,1.7 µM,,,,,,,
O=C1[O][Pt]2([NH][C@@H]3CCCC[C@H]3[NH]2)[O]C1=O [Oxaliplatin],,,7.7 µM,0.6 µM,1.3 µM,16.9 ± 2.0%,17.4 ± 1.9%,9.4 µM,9.3 µM
